Measured values as given in US9259411B2, “Neuronal circuit-dependent neuroprotection by interaction between nicotinic receptors” (priority 2006, dated 2016).

Columns and labels:
[1] = target: α4β2 nAChRs (Homo sapiens, UniProt P17787+P43681); conditions: inhibits the function of α4β2 nAChRs; cited from earlier work
[2] = target: α3β4 nAChRs (Homo sapiens, UniProt P30926+P32297); conditions: inhibits the function of α3β4 nAChRs; cited from earlier work
[3] = target: α3β4 (Homo sapiens, UniProt P30926+P32297); conditions: cited from earlier work
[4] = test system: Akt Ser473; experiment: Western blot of phosphorylated Akt in CA1 of hippocampal slices; type: cell-based, rat; conditions: 1 μM DHβE alone, 20 min
Method: For immunoassays of phosphorylated proteins, in the initial experiments slices were incubated in the same conditions as for PS determination. Later, the slices were incubated by being submerged in a static chamber on culture insets (Millicell; Millipore, Billerica, Mass.) to avoid drying during timed removal of slices.
Slices were prepared and maintained as described above. Treatments started after 2 hr of incubation in ACSF. […] At the corresponding time, each slice was removed and the CA1 region microdissected, frozen on dry ice, and stored at −80° C. until assayed. […] Final detection was carried out with enhance chemiluminescence methodology (Pierce Supersignal West Dura) and the intensity of the signal measured in a gel documentation system (Versa Doc Model 1000; Bio-Rad). […] Normalization of the signal of the phosphokinase to the total amount of proteins, measured by densitometry of the stained membrane, was used as the relevant parameter, which was the level of activity of the kinase. This method was validated with several isolated cells and tissues and determined a linear relationship between the amount of total protein (as measured by densitometry) and total kinases (as measured by chemiluminescence) within the range of proteins employed in these experiments (4-12 μg total protein). […]

[5] = target: α7 (Homo sapiens, UniProt P36544); conditions: cited from earlier work
[6] = test system: CA1 neurons of hippocampal slices; conditions: cited from earlier work; for effect of DHβE on the neuroprotection (reported): 1 μM DHβE, 10 nM MLA
[7] = test system: CA1 neurons of hippocampal slices; experiment: Neuroprotection against NMDA excitotoxicity: recovery of population spikes in acute hippocampal slices; type: cell-based, rat; conditions: for Effect on the neuroprotection caused by the substance: 10 μM PD98059: main target ERK-1,2 kinase; for effect of nifedipine on the neuroprotection: 10 μM nifedipine; for effect of PD98059 on the neuroprotection: 50 μM PD98059
Method: Male Sprague-Dawley rats (120-200 g) were maintained and sacrificed according to standard procedures reviewed and approved by the Institutional Animal Care and Use Committee. […] Briefly, hippocampi were dissected over ice; transversal 400-μm-thick slices were cut with a manual slicer and immediately transferred to the incubation chamber, thus preserving the neurons in their native environment. The chamber consisted of a temperature-controlled bath surrounding an acrylic plate covered with nylon mesh; the plate was divided into three lanes with independent perfusion. […] C. A bipolar electrode placed in the stratum radiatum was used to stimulate the Shaffer collateral incoming fibers with a constant current for 0.2 msec. The resulting population spike (PS) was recorded in stratum pyramidale with a glass electrode filled with 2 M NaCl, having an impedance of 1-5 M.OMEGA.
About 30 slices from the hippocampi of two rats were distributed equally among three lanes of an incubation chamber. A maximum of seven slices were analyzed per lane for each individual experiment, and on average 21 slices per condition were tested for each experimental condition. […] Because the neurons are maintained in their native environment and in contact with other cells, stimulation with the appropriate stimulus can elicit a PS. One hour after dissection, each slice was stimulated with a stimulus twice the strength required to elicit a threshold PS. This initial response was recorded as PS area (msec×mV) and compared to the final response elicited by the same stimulus strength recorded from the same position after the experimental treatment was finished. The slices were washed for 1 hr with normal ACSF to eliminate lingering drugs and any short-lived effects. […] The percentage of the initial response remaining at the end of the experiment was used as a measure of electrophysiological recovery.
The areas of PSs (mV/msec) were acquired and analyzed with the Labman program. The data were statistically analyzed with SigmaStat v2.03 (SPSS, Chicago, Ill.). One-way analysis of variance (ANOVA) was used whenever the data were distributed normally. […] In these cases, the less powerful nonparametric Kruskal-Wallis one-way ANOVA on ranks was used. The post-hoc test used was the Student-Newman-Keuls test for normally distributed data and Dunn's test for data that was not normally distributed.

[8] = target: NMDA receptors; conditions: against the NMDA receptors; cited from earlier work
[9] = target: α7 nAChRs (Rattus norvegicus, UniProt Q05941); conditions: against the α7 nAChRs; cited from earlier work
α7 nAChRs, sequence (Q05941 23-502): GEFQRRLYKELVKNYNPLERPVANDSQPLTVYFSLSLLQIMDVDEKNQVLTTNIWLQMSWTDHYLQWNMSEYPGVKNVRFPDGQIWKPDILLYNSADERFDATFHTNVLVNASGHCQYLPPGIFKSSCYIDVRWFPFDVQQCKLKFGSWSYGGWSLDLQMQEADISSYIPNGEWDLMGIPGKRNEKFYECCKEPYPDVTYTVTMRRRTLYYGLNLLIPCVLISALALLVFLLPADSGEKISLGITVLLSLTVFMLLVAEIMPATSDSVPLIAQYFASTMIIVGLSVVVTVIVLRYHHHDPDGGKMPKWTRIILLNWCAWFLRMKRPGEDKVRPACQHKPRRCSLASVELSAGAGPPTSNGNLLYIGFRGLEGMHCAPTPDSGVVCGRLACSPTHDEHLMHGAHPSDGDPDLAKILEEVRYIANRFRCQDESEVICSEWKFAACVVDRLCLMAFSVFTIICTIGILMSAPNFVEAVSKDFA

α4β2 nAChRs, sequence (P43681 29-627 limits assumed): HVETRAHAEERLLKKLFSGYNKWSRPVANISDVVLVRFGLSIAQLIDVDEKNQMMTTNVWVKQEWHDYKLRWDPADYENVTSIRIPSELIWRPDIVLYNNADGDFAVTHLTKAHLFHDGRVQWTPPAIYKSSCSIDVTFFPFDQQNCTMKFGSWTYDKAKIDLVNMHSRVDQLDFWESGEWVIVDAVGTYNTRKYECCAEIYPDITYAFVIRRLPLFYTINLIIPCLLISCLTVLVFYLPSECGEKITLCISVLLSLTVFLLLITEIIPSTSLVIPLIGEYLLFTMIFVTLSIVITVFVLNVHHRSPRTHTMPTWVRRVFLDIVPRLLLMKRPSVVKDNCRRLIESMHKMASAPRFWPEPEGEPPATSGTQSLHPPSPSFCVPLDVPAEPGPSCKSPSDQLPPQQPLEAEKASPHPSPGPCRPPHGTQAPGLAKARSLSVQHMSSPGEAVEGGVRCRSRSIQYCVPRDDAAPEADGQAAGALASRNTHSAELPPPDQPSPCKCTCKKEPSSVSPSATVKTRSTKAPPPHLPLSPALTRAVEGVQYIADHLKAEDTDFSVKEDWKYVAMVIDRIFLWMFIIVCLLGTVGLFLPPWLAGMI
α4β2 nAChRs, sequence (P17787 26-502): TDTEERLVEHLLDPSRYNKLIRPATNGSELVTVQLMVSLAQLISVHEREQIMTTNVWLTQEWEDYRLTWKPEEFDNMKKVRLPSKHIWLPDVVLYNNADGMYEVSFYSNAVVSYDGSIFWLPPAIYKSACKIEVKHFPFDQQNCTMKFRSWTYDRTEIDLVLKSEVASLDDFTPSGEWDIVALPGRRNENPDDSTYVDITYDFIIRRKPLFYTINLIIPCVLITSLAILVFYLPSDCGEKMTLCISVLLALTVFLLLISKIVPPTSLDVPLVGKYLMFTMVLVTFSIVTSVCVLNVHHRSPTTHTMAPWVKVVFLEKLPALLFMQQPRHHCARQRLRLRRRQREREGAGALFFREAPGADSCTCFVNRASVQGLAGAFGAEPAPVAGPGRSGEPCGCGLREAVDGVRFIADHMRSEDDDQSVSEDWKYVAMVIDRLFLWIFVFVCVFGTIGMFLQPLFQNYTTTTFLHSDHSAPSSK
α3β4 nAChRs, sequence (P32297 32-505): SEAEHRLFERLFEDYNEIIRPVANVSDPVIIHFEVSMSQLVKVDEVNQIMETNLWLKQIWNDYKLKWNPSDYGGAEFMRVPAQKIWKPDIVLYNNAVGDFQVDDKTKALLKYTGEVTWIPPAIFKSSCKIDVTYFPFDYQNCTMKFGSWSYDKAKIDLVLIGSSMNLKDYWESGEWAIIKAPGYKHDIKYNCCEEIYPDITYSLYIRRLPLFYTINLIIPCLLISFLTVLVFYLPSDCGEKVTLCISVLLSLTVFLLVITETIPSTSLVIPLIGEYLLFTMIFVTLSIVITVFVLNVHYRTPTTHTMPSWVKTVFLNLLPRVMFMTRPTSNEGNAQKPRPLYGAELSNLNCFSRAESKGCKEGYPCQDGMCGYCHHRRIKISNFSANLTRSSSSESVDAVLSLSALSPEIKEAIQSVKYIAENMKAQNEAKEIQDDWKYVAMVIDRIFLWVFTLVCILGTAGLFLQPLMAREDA
α3β4 nAChRs, sequence (P30926 22-498): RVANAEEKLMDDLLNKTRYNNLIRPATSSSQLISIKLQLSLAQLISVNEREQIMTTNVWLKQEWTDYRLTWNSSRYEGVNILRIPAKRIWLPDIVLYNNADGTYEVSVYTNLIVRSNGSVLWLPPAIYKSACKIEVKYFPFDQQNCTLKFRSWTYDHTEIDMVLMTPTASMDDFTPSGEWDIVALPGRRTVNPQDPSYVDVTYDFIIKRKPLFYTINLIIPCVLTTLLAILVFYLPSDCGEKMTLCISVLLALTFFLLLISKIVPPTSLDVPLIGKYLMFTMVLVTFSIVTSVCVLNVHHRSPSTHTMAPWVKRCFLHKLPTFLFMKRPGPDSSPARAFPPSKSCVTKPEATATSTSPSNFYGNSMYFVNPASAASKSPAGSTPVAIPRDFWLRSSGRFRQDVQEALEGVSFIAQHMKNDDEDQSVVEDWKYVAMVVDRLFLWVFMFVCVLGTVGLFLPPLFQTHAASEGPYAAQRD
α3β4, sequence (P32297 32-505): as the sequence (P32297 32-505) above
α3β4, sequence (P30926 22-498): as the sequence (P30926 22-498) above
α7, sequence (P36544 23-502): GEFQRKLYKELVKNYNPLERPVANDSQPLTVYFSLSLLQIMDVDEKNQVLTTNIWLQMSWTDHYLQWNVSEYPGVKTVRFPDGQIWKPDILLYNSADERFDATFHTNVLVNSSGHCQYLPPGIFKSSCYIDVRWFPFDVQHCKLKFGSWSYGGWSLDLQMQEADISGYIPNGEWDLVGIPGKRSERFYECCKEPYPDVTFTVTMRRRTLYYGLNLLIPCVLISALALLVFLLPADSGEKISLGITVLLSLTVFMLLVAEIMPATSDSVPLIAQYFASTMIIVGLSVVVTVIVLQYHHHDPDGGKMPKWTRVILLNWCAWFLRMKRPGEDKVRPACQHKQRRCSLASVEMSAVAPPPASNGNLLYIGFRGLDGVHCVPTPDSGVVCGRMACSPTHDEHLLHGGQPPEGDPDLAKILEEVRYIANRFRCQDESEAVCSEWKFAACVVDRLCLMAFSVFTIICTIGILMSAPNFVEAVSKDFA

SMILES: CC1=CC(O)CC(C)(O)C=CC(C(C)C)CCC(C)=CCC1 [4R, (1S,2E,4R,6R,7E,11E)-cembra-2,7,11-triene-4,6-diol]
- IC50 [1]: 19.1 µM
- IC50 [2]: 2.2 µM

SMILES: CO[C@H]1CC=C2CCN3CCC4=C(CC(=O)OC4)[C@]23C1 [DHβE, Dihydro-Beta-erithroidine]
- Ki [3]: 218 µM
- Akt phosphorylation [4]: did not affect
- Ki [5]: 25 to 57 µM

SMILES: CCN1C[C@]2(COC(=O)c3ccccc3N3C(=O)C[C@H](C)C3=O)CC[C@H](OC)[C@@]34[C@@H]5C[C@H]6[C@H](OC)[C@@H]5[C@](O)(C[C@@H]6OC)[C@@](O)([C@@H](OC)[C@H]23)[C@@H]14 [MLA, methyllycaconitine]
- effect of DHβE on the neuroprotection (reported) [6]: blocked
- neuroprotection (reported) ([6]; literature report): neuroprotective
- Effect on the neuroprotection caused by the substance: 10 μM PD98059 [7]: 0

SMILES: CC12CC3CC(C)(C1)CC(N)(C3)C2 [Memantine, memantine]
- effect of DHβE on the neuroprotection ([7]; 1 μM DHβE, 2 μM 4R): inhibited
- effect of nifedipine on the neuroprotection [7]: blocked
- effect of PD98059 on the neuroprotection ([7]; 2 μM 4R, 1 μM nicotine): not inhibited
- shape of the dose-response curve for neuroprotection ([7]; FIGS. 20A-B): bell-shaped
- concentrations of dose-dependent neuroprotection ([7]; effect decreases at higher concentrations): below 3 μM
- effect of inhibitors of PI3-kinase on the neuroprotection ([7]; inhibitors of PI3-kinase): blocked
- Effect on the neuroprotection caused by the substance: 10 μM PD98059 [7]: 0
- Effect on the neuroprotection caused by the substance: 0.1 μM Ro31 -8220 ([7]; main target PKC): 0
- effect of vesamicol on the neuroprotection ([7]; vesamicol): blocked
- IC50 [8]: 5.1 µM
- IC50 [9]: 0.34 µM

SMILES: CN1CCCC1c1cccnc1 (stereo not drawn) [Nicotine, nicotine]
- effect of DHβE on the neuroprotection (reported) [6]: blocked
- effect of Ro-31-8220 on the neuroprotection ([7]; 100 nM Ro-31-8220, 2 μM 4R, 1 μM nicotine): did inhibit
- effect of APV on the neuroprotection ([7]; 0.4 μM APV, 2:M 4R or 1:M nicotine): only a nonsignificant decrement
- effect of KT5720 on the neuroprotection ([7]; 0.5 μM KT5720, 2 μM 4R, 1 μM nicotine): partially decreased
- recovery ([7]; 1 μM during 1 hr followed by 0.5 mM NMDA): more than 80%
- effect of KN-62 on the neuroprotection ([7]; 9 μM KN-62): did not prevent a significant neuroprotection
- effect of nifedipine on the neuroprotection [7]: did not inhibit
- effect of DNQX on the neuroprotection ([7]; 50 μM DNQX, 2 μM 4R, 1 μM nicotine): recovered significantly more activity
- effect of PD98059 on the neuroprotection ([7]; 2 μM 4R, 1 μM nicotine): annulled
- Effect on the neuroprotection caused by the substance: 9 μMKN-62 ([7]; main target CaM kinases): 0
- Effect on the neuroprotection caused by the substance: 10 μM Nifedipine ([7]; main target L-type VGCC): 0
- Effect on the neuroprotection caused by the substance: 4 μMAPV ([7]; main target NMDA receptors): 0
- Effect on the neuroprotection caused by the substance: 50 μM Vesarnicol ([7]; main target Synaptic ACh release): 0

SMILES: Cn1cc(C2=C(c3ccc(Cl)cc3Cl)C(=O)NC2=O)c2ccccc21 [SB 216763]
- neuroprotection ([7]; 100 μM applied 1 hr before or after 0.5 mM NMDA, n=21): neuroprotective only when applied after NMDA
